Consider 15 molecules from PubChem BioAssay AID248 (DTP/NCI, 2004).

Structures are written as SMILES. Several values for one entry are separate records, joined by “and”; a condition that tells them apart may be missing. Identical values can stand only once. Toxic doses and inconclusive results are not listed.

In this test the test system is L1210 leukemia ip in BDF1 mice, survival T/C. Description: NCI In Vivo Anticancer Drug Screen. Data for tumor model L1210 Leukemia (intraperitoneal) in B6D2F1 (BDF1) mice. The following applies: endpoint: mean survival time, higher = longer survival. Put shortly: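 Ratio derived from survival: compound-dosed mice over vehicle-dosed mice, all bearing a transplantable tumor.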

Where [1] appears, read: dose: 100.0 mg/kg/injection, schedule: Q04DX002 (ip), vehicle: saline with Tween-80.
Setting [2] is: dose: 100.0 mg/kg/injection, schedule: Q01DX001 (ip), vehicle: carboxymethylcellulose (CMC).
[3] abbreviates: dose: 200.0 mg/kg/injection, schedule: Q01DX001 (ip), vehicle: carboxymethylcellulose (CMC).
Where [4] appears, read: dose: 400.0 mg/kg/injection, schedule: Q01DX001 (ip), vehicle: carboxymethylcellulose (CMC).
[5] abbreviates: dose: 100.0 mg/kg/injection, schedule: Q04DX003 (ip), vehicle: Klucel (hydroxypropylcellulose) (HPC).
Setting [6] is: dose: 200.0 mg/kg/injection, schedule: Q04DX003 (ip), vehicle: Klucel (hydroxypropylcellulose) (HPC).
The mark [7] stands for this setting: dose: 400.0 mg/kg/injection, schedule: Q04DX003 (ip), vehicle: Klucel (hydroxypropylcellulose) (HPC).

`COCCCN=C(N)c1ccc(NC(=O)c2ccc(C(=O)Nc3ccc(C(N)=NCCCOC)cc3)c(Cl)c2)cc1`: the T/C by setting is: (dose: 0.47 mg/kg/injection, schedule: Q01DX Z (ip), vehicle: saline) 92 % of control; (dose: 0.94 mg/kg/injection, schedule: Q01DX Z (ip), vehicle: saline) 91 % of control; (dose: 1.88 mg/kg/injection, schedule: Q01DX Z (ip), vehicle: saline) 94 % of control; (dose: 3.75 mg/kg/injection, schedule: Q01DX Z (ip), vehicle: saline) 111 % of control; (dose: 7.5 mg/kg/injection, schedule: Q01DX Z (ip), vehicle: saline) 171 % of control; (dose: 7.5 mg/kg/injection, schedule: Q01DX Z (oral), vehicle: saline) 103 % of control. Also, the T/C is, setting by setting: (dose: 15.0 mg/kg/injection, schedule: Q01DX Z (ip), vehicle: saline) 89 % of control; (dose: 15.0 mg/kg/injection, schedule: Q01DX Z (oral), vehicle: saline) 111 % of control; (dose: 30.0 mg/kg/injection, schedule: Q01DX Z (oral), vehicle: saline) 94 % of control; (dose: 60.0 mg/kg/injection, schedule: Q01DX Z (oral), vehicle: saline) 102 % of control.

On to `CCc1[nH]c(=O)nc2[nH]c3ccccc3c12`, for which the T/C is, setting by setting: (dose: 100.0 mg/kg/injection, schedule: Q04DX002 (ip), vehicle: Klucel (hydroxypropylcellulose) (HPC)) 90 % of control; (dose: 200.0 mg/kg/injection, schedule: Q04DX002 (ip), vehicle: Klucel (hydroxypropylcellulose) (HPC)) 93 % of control; (dose: 400.0 mg/kg/injection, schedule: Q04DX002 (ip), vehicle: Klucel (hydroxypropylcellulose) (HPC)) 97 % of control.

Consider `c1ccc(C2CC2NC2=NCCO2)cc1` (stereo not drawn), for which the T/C by setting is: (dose: 12.5 mg/kg/injection, schedule: Q04DX002 (ip), vehicle: saline with Tween-80) 104 % of control; (dose: 25.0 mg/kg/injection, schedule: Q04DX002 (ip), vehicle: saline with Tween-80) 101 % of control; (dose: 50.0 mg/kg/injection, schedule: Q04DX002 (ip), vehicle: saline with Tween-80) 96 % of control; under setting [1], 93 % of control.

As for `Nc1cccs1`, the T/C reads like this: (dose: 8.12 mg/kg/injection, schedule: Q01DX009 (ip), vehicle: saline) 100 % of control; (dose: 9.37 mg/kg/injection, schedule: Q01DX009 (ip), vehicle: other) 94 % of control; (dose: 16.25 mg/kg/injection, schedule: Q01DX009 (ip), vehicle: saline) 100 % of control; (dose: 18.75 mg/kg/injection, schedule: Q01DX009 (ip), vehicle: other) 107 % of control; (dose: 37.5 mg/kg/injection, schedule: Q01DX009 (ip), vehicle: other) 107 % of control; (dose: 75.0 mg/kg/injection, schedule: Q01DX009 (ip), vehicle: other) 96 % of control. The T/C was 153 % of control (dose: 100.0 mg/kg/injection, schedule: Q01DX009 (ip), vehicle: saline); 96 % of control (dose: 150.0 mg/kg/injection, schedule: Q01DX009 (ip), vehicle: other); 102 % of control (dose: 300.0 mg/kg/injection, schedule: Q01DX009 (ip), vehicle: other).

As for `COC(=O)c1cc2c(cc1O)CCCC2`, the T/C was 107 % of control (dose: 50.0 mg/kg/injection, schedule: Q01DX001 (ip), vehicle: carboxymethylcellulose (CMC)); 113 % of control under setting [2]; 107 % of control under setting [3]; 107 % of control under setting [4].

Consider `CCOC(=O)CC(=O)c1ccc(OCCOc2ccc(C(C)(C)CC(C)(C)C)cc2)cc1`, for which the T/C runs as follows: (dose: 100.0 mg/kg/injection, schedule: Q01DX009 (ip), vehicle: Klucel (hydroxypropylcellulose) (HPC)) 95 % of control; under setting [5], 89 % of control; (dose: 200.0 mg/kg/injection, schedule: Q01DX009 (ip), vehicle: Klucel (hydroxypropylcellulose) (HPC)) 97 % of control; under setting [6], 96 % of control; (dose: 400.0 mg/kg/injection, schedule: Q01DX009 (ip), vehicle: Klucel (hydroxypropylcellulose) (HPC)) 87 % of control; under setting [7], 86 % of control.

On to `CNC(=O)NC1CCOCC1`, for which the T/C runs as follows: (dose: 100.0 mg/kg/injection, schedule: Q01DX001 (ip), vehicle: saline) 100 % of control; (dose: 200.0 mg/kg/injection, schedule: Q01DX001 (ip), vehicle: saline) 96 % of control; (dose: 400.0 mg/kg/injection, schedule: Q01DX001 (ip), vehicle: saline) 96 % of control.

Consider `Nc1nc(N)c(-c2ccc(Cl)cc2)c(CNc2ccc(/C=C/C3(CCl)OCCO3)cc2)n1`, for which the T/C was 92 % of control (dose: 100.0 mg/kg/injection, schedule: Q01DX001 (ip), vehicle: saline with Tween-80); 100 % of control (dose: 200.0 mg/kg/injection, schedule: Q01DX001 (ip), vehicle: saline with Tween-80); 96 % of control (dose: 400.0 mg/kg/injection, schedule: Q01DX001 (ip), vehicle: saline with Tween-80).

Consider `O=C(CC(=O)c1ccccc1)Nc1ccccc1`, for which the T/C is, setting by setting: (dose: 100.0 mg/kg/injection, schedule: Q01DX001 (ip), vehicle: gum acacia) 103 % of control and 104 % of control; (dose: 100.0 mg/kg/injection, schedule: Q01DX009 (ip), vehicle: gum acacia) 95 % of control and 104 % of control; (dose: 100.0 mg/kg/injection, schedule: Q04DX002 (ip), vehicle: gum acacia) 100 % of control and 88 % of control; (dose: 100.0 mg/kg/injection, schedule: Q04DX003 (ip), vehicle: gum acacia) 96 % of control and 91 % of control; (dose: 200.0 mg/kg/injection, schedule: Q01DX001 (ip), vehicle: gum acacia) 96 % of control and 97 % of control; (dose: 200.0 mg/kg/injection, schedule: Q01DX009 (ip), vehicle: gum acacia) 92 % of control. In addition, the T/C (dose: 200.0 mg/kg/injection, schedule: Q04DX002 (ip), vehicle: gum acacia) was 98 % of control and 90 % of control; the T/C (dose: 200.0 mg/kg/injection, schedule: Q04DX003 (ip), vehicle: gum acacia) was 96 % of control and 88 % of control; the T/C (dose: 400.0 mg/kg/injection, schedule: Q01DX001 (ip), vehicle: gum acacia) was 92 % of control and 93 % of control; the T/C (dose: 400.0 mg/kg/injection, schedule: Q01DX009 (ip), vehicle: gum acacia) is 102 % of control; the T/C (dose: 400.0 mg/kg/injection, schedule: Q04DX002 (ip), vehicle: gum acacia) is 94 % of control and 91 % of control; the T/C (dose: 400.0 mg/kg/injection, schedule: Q04DX003 (ip), vehicle: gum acacia) is 93 % of control and 94 % of control.

On to `CCCCC[N+](C)(C)CCOC(=O)C1C2CC3OC(=O)C1C3C2` (stereo not drawn), for which the T/C (dose: 100.0 mg/kg/injection, schedule: Q04DX003 (ip), vehicle: saline) was 95 % of control.

In the case of `CC(O)CCc1ccccc1O` (stereo not drawn), the T/C runs as follows: under setting [1], 98 % of control; (dose: 200.0 mg/kg/injection, schedule: Q04DX002 (ip), vehicle: saline with Tween-80) 91 % of control; (dose: 400.0 mg/kg/injection, schedule: Q04DX002 (ip), vehicle: saline with Tween-80) 98 % of control.

As to `CC(=O)CSc1ccc(C(C)(C)C)cc1`, the T/C under setting [2] is 102 % of control, the T/C under setting [3] was 96 % of control and the T/C under setting [4] was 105 % of control.

As for `CCOC(=O)CCc1c(C(=O)OCC)[nH]c(C)c1C(=O)O`, the T/C reads like this: under setting [5], 95 % of control; under setting [6], 98 % of control; under setting [7], 97 % of control.

`CCCCCCCCC1OCC(C)O1` (stereo not drawn): the T/C was 94 % of control and 92 % of control (dose: 24.0 mg/kg/injection, schedule: Q01DX Z (ip), vehicle: methylcellulose (MC)); 96 % of control and 107 % of control (dose: 37.0 mg/kg/injection, schedule: Q01DX Z (ip), vehicle: methylcellulose (MC)); 86 % of control (dose: 55.0 mg/kg/injection, schedule: Q01DX Z (ip), vehicle: methylcellulose (MC)); 97 % of control and 92 % of control (dose: 82.5 mg/kg/injection, schedule: Q01DX Z (ip), vehicle: methylcellulose (MC)); 94 % of control (dose: 124.0 mg/kg/injection, schedule: Q01DX Z (ip), vehicle: methylcellulose (MC)).

`CCN(CC)CC(Cl)CN(CC)CC`: the T/C runs as follows: (dose: 50.0 mg/kg/injection, schedule: Q01DX009 (ip), vehicle: saline with Tween-80) 104 % of control; (dose: 100.0 mg/kg/injection, schedule: Q01DX009 (ip), vehicle: saline with Tween-80) 87 % of control; (dose: 100.0 mg/kg/injection, schedule: Q04DX003 (ip), vehicle: saline with Tween-80) 97 % of control; (dose: 200.0 mg/kg/injection, schedule: Q04DX003 (ip), vehicle: saline with Tween-80) 88 % of control.
